Experimental data published in patent publication US6790619B2, “Plant phosphomevalonate kinases” (Bayer Aktiengesellschaft, priority 2000, dated 2004).
Entries after “also recorded” stand apart in the source; their conditions may differ.

Tested on: PMVK expression
Test: virtual Northern blot analysis of differential PMVK expression in response to chlorsulfuron
Type: in vivo, Arabidopsis thaliana cv. Columbia
Conditions: Arabidopsis plants harvested 24 hours after treatment with chlorsulfuron 10 g/ha vs control treatment
Procedure: Suppression subtractive hybridization constitutes a method of isolating differentially expressed genes. The two samples to be compared were on the one hand Arabidopsis plants which had been harvested 24 hours after treatment with a herbicide (chlorsulfuron, 10 g/ha) and, on the other hand, Arabidopsis plants which had been harvested 24 hours after a control treatment. The 370 bp PMVK fragment was isolated from the chlorsulfuron-treated plants in which PMVK transcription may have been induced by the treatment. To verify differential PMVK expression in the response to chlorsulfuron, so-called virtual Northern blot analyses were carried out. In a virtual Northern blot, cDNA is prepared from total RNA with Clontech's SMART method (see manufacturer's instructions) and amplified by PCR. A low enough number of PCR cycles is employed so that the amplification is still within the linear range of the PCR. In the present case, an optimum between 15 and 18 cycles emerged. The SMART cDNA is separated on an agarose gel by methods known to the skilled worker, transferred to a nylon membrane and hybridized with a DIG-labelled probe. This method permits study of the expression even of genes with a low expression level.

COc1nc(C)nc(NC(=O)NS(=O)(=O)c2ccccc2Cl)n1 [chlorsulfuron]
induction of PMVK expression: low degree of induction; also recorded: possible to induce this gene
